Target: T1, LipC (Haloarcula marismortui, UniProt Q5V5N6)
T1 construct: full-length, N- and C-terminal 6xHis tags, pET28a (NheI/HindIII), E. coli BL21(DE3); theoretical 34 kDa, ~50 kDa on SDS-PAGE; no signal peptide; catalytic triad Ser128, Asp224, His254; active as free monomers, mixed aggregates
T1 sequence (Q5V5N6 1-327): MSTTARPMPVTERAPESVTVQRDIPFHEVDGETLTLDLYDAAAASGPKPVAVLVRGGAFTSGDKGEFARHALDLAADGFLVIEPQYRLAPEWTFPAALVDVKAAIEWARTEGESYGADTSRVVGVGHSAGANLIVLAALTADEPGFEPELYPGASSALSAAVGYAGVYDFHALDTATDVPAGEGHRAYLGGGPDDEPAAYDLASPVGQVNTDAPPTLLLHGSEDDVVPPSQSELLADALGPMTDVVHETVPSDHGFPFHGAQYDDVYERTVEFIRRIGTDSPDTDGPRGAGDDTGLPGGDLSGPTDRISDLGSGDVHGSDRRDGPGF
Assay: p-nitrophenol release at […] nm
Type: biochemical
Conditions: 0.5 mM substrate, 50 mM Tris-HCl pH 8.5, 45 °C, 3.4 M NaCl

Structure (SMILES)	p-nitrophenol release at 405 nm
CCC(=O)Oc1ccc([N+](=O)[O-])cc1 [p-NP-C3]	short chain p-nitrophenyl esters of p-NP-C2 and p-NP-C3
CC(=O)Oc1ccc([N+](=O)[O-])cc1 [p-NP-C2, p-nitrophenyl acetate]	The highest specific activity of LipC was found towards the short chain p-nitrophenyl esters

— article PMC2736375, “Solution Behavior and Activity of a Halophilic Esterase under High Salt Concentration” (PLoS ONE, 2009)
